# Data from US20260201008A1, “SECRETIN-DERIVED GLP1R SELECTIVE AGONISTS” (GUBRA A/S, priority 2023, published 2026).
# Where two headings read alike, the source gives them in different places. Numbered stars: 1 amine (or outer) side, 2 acyl side, 3 side chain; on linkers, the order of the positions; unused ones are H or OH. Square brackets hold non-standard residues; d marks the D form. Side chains are listed from the residue outwards. Peptide text beside a SMILES is read from it. * marks the point of attachment. C20 diacid = O=C(O)CCCCCCCCCCCCCCCCCCC(=O)*; γGlu = O=C(O)[C@H](CCC(=O)[*:2])N[*:1]; AEEA = NCCOCCOCC(=O)O; Aib = CC(C)(N)C(=O)O
# Tests used:
# [1] = Turbidity of crude library peptides (absorbance at 600 nm); type: physicochemical; conditions: Physical stability of peptides
# Method in brief: (§1)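 Values reflect mean ThT emission (ex 450, em 480 nm) over 72 h at 40° C, read every 10 min after 5 min shaking at 700 rpm, plus a single initial absorbance at 600 nm for turbidity. Peptides were at 267 μM, pH 4.0 acetate or pH 7.0 phosphate (50 mM), with 4 μM ThT.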
# [2] = Fibril formation of crude library peptides (Thioflavin T); type: physicochemical; parameters: key: average ThT fluorescence emission at 480 nm (ex 450 nm), raw units; conditions: Physical stability of peptides
# Method in brief: as §1
# GLP1R = GLP1R (Homo sapiens, UniProt P43220); assay: hGLP1R potency, cAMP accumulation in CHO-K1 cells stably overexpressing hGLP1R; type: cell-based; parameters: host or cells: CHO-K1; conditions: for Selectivity: SCTR EC50/GLP1R EC50 ratio; for EC50: cAMP accumulation; for SCTR EC50/GLP1R EC50 ratio: cAMP accumulation in CHO-K1 cells
# Method in brief: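 Cells were plated in DPBS with 0.05% casein and 0.5 mM IBMX, then stimulated for 30 min at room temperature with test compound. cAMP was read by TR-FRET after one hour. EC50 came from variable-slope sigmoid nonlinear regression; purified peptides ran as 11-point 3-fold series, n=2.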
# SCTR = SCTR (Homo sapiens, UniProt P47872); assay: hSCTR potency, cAMP accumulation in CHO-K1 cells stably overexpressing hSCTR; type: cell-based; parameters: alternatively Euroscreen ES-712-AF; FAST-0161L; host or cells: CHO-K1; conditions: cAMP accumulation
# Method in brief: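 Division-arrested CHO-K1 cells stably expressing hSCTR were plated in DPBS with 0.05% casein and 0.5 mM IBMX, then stimulated with test peptide for 30 min at room temperature. cAMP was read by HTRF after one hour. EC50 came from variable-slope sigmoidal nonlinear regression.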
# [3] = CHO-K1 cells overexpressing hGLP1R, read-out: pEC50 hGLPR1 (converted)
# [4] = CHO-K1 cells overexpressing hSCTR, read-out: pEC50 hSCTR (converted)
# [5] = CHO-K1 cells overexpressing hGLP1R, read-out: hGLP1R pEC50 (converted)
# [6] = selectivity for hGLP1R over hSCTR
# [7] = CHO-K1 cells overexpressing hSCTR, read-out: hSCTR pEC50 (converted)
# Chain of SCTR (P47872 23-440): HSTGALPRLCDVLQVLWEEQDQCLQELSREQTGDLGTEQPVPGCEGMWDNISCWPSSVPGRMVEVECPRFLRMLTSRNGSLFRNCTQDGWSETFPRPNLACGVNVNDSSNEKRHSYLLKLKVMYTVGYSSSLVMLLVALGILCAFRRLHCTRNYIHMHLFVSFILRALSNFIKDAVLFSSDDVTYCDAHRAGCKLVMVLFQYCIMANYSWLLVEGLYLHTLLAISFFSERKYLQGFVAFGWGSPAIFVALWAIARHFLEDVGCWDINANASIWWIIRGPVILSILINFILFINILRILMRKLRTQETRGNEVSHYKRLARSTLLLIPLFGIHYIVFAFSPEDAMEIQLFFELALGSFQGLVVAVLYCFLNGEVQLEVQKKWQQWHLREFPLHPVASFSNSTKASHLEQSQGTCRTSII
# Chain of GLP1R (P43220 24-463): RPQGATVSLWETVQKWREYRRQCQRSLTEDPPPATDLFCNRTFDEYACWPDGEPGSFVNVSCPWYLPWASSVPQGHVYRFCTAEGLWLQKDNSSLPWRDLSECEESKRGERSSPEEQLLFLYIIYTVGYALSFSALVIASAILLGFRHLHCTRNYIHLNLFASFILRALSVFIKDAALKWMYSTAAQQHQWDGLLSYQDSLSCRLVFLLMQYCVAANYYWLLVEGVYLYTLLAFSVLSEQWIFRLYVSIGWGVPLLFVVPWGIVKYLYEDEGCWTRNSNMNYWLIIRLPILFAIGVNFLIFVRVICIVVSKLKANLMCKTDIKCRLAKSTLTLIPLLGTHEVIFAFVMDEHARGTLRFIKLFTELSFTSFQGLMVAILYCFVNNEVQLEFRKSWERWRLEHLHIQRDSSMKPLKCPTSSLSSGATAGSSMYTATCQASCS
SMILES,Turbidity (pH 7) [1],Fibril formation [2],Selectivity (GLP1R),EC50 (GLP1R; [3]) [nM],EC50 (SCTR; [4]) [nM],EC50 (GLP1R; [5]) [nM],SCTR EC50/GLP1R EC50 ratio (GLP1R; [6]),EC50 (SCTR; [7]) [nM],"EC50 (GLP1R; CHO-K1 cells stably overexpressing hGLP1R, read-out: hGLP1R potency (pEC50) (converted)) [nM]","SCTR EC50/GLP1R EC50 ratio (GLP1R; selectivity ratio, hSCTR vs hGLP1R)","EC50 (SCTR; CHO-K1 cells stably overexpressing hSCTR, read-out: hSCTR potency (pEC50) (converted)) [nM]"
CC(C)C[C@H](NC(=O)[C@H](CCC(=O)O)NC(=O)[C@H](CCCCNC(=O)COCCOCCNC(=O)COCCOCCNC(=O)CC[C@H](NC(=O)CCCCCCCCCCCCCCCCCCC(=O)O)C(=O)O)NC(=O)[C@H](CC(C)C)NC(=O)[C@@H](NC(=O)[C@H](CO)NC(=O)[C@@H](NC(=O)[C@H](CC(=O)O)NC(=O)[C@H](CO)NC(=O)[C@@H](NC(=O)[C@H](Cc1ccccc1)NC(=O)[C@@H](NC(=O)CNC(=O)[C@H](CCC(=O)O)NC(=O)C(C)(C)NC(=O)[C@@H](N)Cc1c[nH]cn1)[C@@H](C)O)[C@@H](C)O)C(C)C)[C@@H](C)O)C(=O)N[C@@H](C)C(=O)N[C@@H](C)C(=O)N[C@@H](CCC(=O)O)C(=O)N[C@@H](CCC(N)=O)C(=O)N[C@@H](CCCNC(=N)N)C(=O)N[C@@H](Cc1ccccc1)C(=O)N[C@@H](CC(C)C)C(=O)N[C@@H](CCC(=O)O)C(=O)N[C@@H](Cc1c[nH]cn1)C(=O)N[C@@H](CC(C)C)C(=O)N[C@H](C(N)=O)C(C)C [compound 78] (H-H[Aib]EGTFTSDVSTLK([AEEA-AEEA-γGlu-C20 diacid])ELAAEQRFLEHLV-NH2),0.08,8551,72127,0.0501,3980,,,,,,
CC[C@H](C)[C@H](NC(=O)[C@H](Cc1ccccc1)NC(=O)[C@H](CCCNC(=N)N)NC(=O)[C@H](CCC(N)=O)NC(=O)[C@H](CC(C)C)NC(=O)[C@H](C)NC(=O)[C@H](C)NC(=O)CNC(=O)[C@H](CCC(=O)O)NC(=O)[C@H](CC(C)C)NC(=O)[C@H](CC(C)C)NC(=O)[C@H](Cc1ccc(O)cc1)NC(=O)[C@H](CO)NC(=O)[C@H](Cc1ccc(O)cc1)NC(=O)[C@H](CC(=O)O)NC(=O)[C@H](CO)NC(=O)[C@@H](NC(=O)[C@H](Cc1ccccc1)NC(=O)[C@@H](NC(=O)CNC(=O)[C@H](CCC(=O)O)NC(=O)C(C)(C)NC(=O)[C@@H](N)Cc1c[nH]cn1)[C@@H](C)O)[C@@H](C)O)C(=O)N[C@@H](CCC(N)=O)C(=O)N[C@@H](Cc1c[nH]c2ccccc12)C(=O)N[C@@H](CC(C)C)C(=O)N[C@H](C(N)=O)C(C)C [compound 201] (H-H[Aib]EGTFTSDYSYLLEGAALQRFIQWLV-NH2),0.30,30208,,,,,,,0.0126,940,12.6
CC(C)C[C@H](NC(=O)[C@H](Cc1ccccc1)NC(=O)[C@H](CCCNC(=N)N)NC(=O)[C@H](CCC(N)=O)NC(=O)[C@H](CO)NC(=O)[C@H](C)NC(=O)[C@H](C)NC(=O)[C@H](Cc1ccccc1)NC(=O)[C@H](CCC(=O)O)NC(=O)[C@H](CCCCNC(=O)COCCOCCNC(=O)COCCOCCNC(=O)CC[C@H](NC(=O)CCCCCCCCCCCCCCCCCCC(=O)O)C(=O)O)NC(=O)[C@H](CC(C)C)NC(=O)[C@H](Cc1ccc(O)cc1)NC(=O)[C@H](CO)NC(=O)[C@@H](NC(=O)[C@H](CC(=O)O)NC(=O)[C@H](CO)NC(=O)[C@@H](NC(=O)[C@H](Cc1ccccc1)NC(=O)[C@@H](NC(=O)CNC(=O)[C@H](CCC(=O)O)NC(=O)C(C)(C)NC(=O)[C@@H](N)Cc1c[nH]cn1)[C@@H](C)O)[C@@H](C)O)C(C)C)C(=O)N[C@@H](CCC(=O)O)C(=O)N[C@@H](Cc1c[nH]cn1)C(=O)N[C@@H](CC(C)C)C(=O)N[C@H](C(N)=O)C(C)C [compound 66] (H-H[Aib]EGTFTSDVSYLK([AEEA-AEEA-γGlu-C20 diacid])EFAASQRFLEHLV-NH2),0.08,201306,81752,0.0398,3160,,,,,,
CC(C)C[C@H](NC(=O)[C@H](Cc1ccccc1)NC(=O)[C@H](CCCNC(=N)N)NC(=O)[C@H](CCC(N)=O)NC(=O)[C@H](CC(C)C)NC(=O)C(C)(C)NC(=O)[C@H](C)NC(=O)[C@H](CCC(=O)O)NC(=O)[C@H](CCC(=O)O)NC(=O)[C@H](Cc1ccccc1)NC(=O)[C@H](CC(C)C)NC(=O)[C@H](Cc1ccc(O)cc1)NC(=O)[C@H](CO)NC(=O)[C@@H](NC(=O)[C@H](CC(=O)O)NC(=O)[C@H](CO)NC(=O)[C@@H](NC(=O)[C@H](Cc1ccccc1)NC(=O)[C@@H](NC(=O)CNC(=O)[C@H](CCC(=O)O)NC(=O)C(C)(C)NC(=O)[C@@H](N)Cc1c[nH]cn1)[C@@H](C)O)[C@@H](C)O)C(C)C)C(=O)N[C@@H](CCC(=O)O)C(=O)N[C@@H](CCCCNC(=O)COCCOCCNC(=O)COCCOCCNC(=O)CC[C@H](NC(=O)CCCCCCCCCCCCCCCCCCC(=O)O)C(=O)O)C(=O)N[C@@H](CC(C)C)C(=O)N[C@H](C(N)=O)C(C)C [compound 176] (H-H[Aib]EGTFTSDVSYLFEEA[Aib]LQRFLEK([AEEA-AEEA-γGlu-C20 diacid])LV-NH2),0.08,3751,,,,0.0316,89023,3160,,,

# Second part, the compound after the results:
Turbidity (pH 7) [1],Fibril formation [2],Selectivity (GLP1R),EC50 (GLP1R; [3]) [nM],EC50 (SCTR; [4]) [nM],EC50 (GLP1R; [5]) [nM],SCTR EC50/GLP1R EC50 ratio (GLP1R; [6]),EC50 (SCTR; [7]) [nM],"EC50 (GLP1R; CHO-K1 cells stably overexpressing hGLP1R, read-out: hGLP1R potency (pEC50) (converted)) [nM]","SCTR EC50/GLP1R EC50 ratio (GLP1R; selectivity ratio, hSCTR vs hGLP1R)","EC50 (SCTR; CHO-K1 cells stably overexpressing hSCTR, read-out: hSCTR potency (pEC50) (converted)) [nM]",SMILES
0.08,3061,,,,0.00794,303145,2510,,,,CC(C)C[C@H](NC(=O)[C@H](Cc1ccccc1)NC(=O)[C@H](CCCNC(=N)N)NC(=O)[C@H](CCC(N)=O)NC(=O)[C@H](CO)NC(=O)C(C)(C)NC(=O)[C@H](C)NC(=O)[C@H](CCC(=O)O)NC(=O)[C@H](CCC(=O)O)NC(=O)[C@H](CCCCNC(=O)COCCOCCNC(=O)COCCOCCNC(=O)CC[C@H](NC(=O)CCCCCCCCCCCCCCCCCCC(=O)O)C(=O)O)NC(=O)[C@H](CC(C)C)NC(=O)[C@H](Cc1ccc(O)cc1)NC(=O)[C@H](CO)NC(=O)[C@@H](NC(=O)[C@H](CC(=O)O)NC(=O)[C@H](CO)NC(=O)[C@@H](NC(=O)[C@H](Cc1ccccc1)NC(=O)[C@@H](NC(=O)CNC(=O)[C@H](CCC(=O)O)NC(=O)C(C)(C)NC(=O)[C@@H](N)Cc1c[nH]cn1)[C@@H](C)O)[C@@H](C)O)C(C)C)C(=O)N[C@@H](CCC(=O)O)C(=O)N[C@@H](Cc1c[nH]cn1)C(=O)N[C@@H](CC(C)C)C(=O)N[C@H](C(N)=O)C(C)C [compound 134] (H-H[Aib]EGTFTSDVSYLK([AEEA-AEEA-γGlu-C20 diacid])EEA[Aib]SQRFLEHLV-NH2)
0.08,3337,,,,0.0251,873474,25100,,,,CC(C)C[C@H](NC(=O)[C@H](Cc1ccccc1)NC(=O)[C@H](CCCNC(=N)N)NC(=O)[C@H](CCC(N)=O)NC(=O)[C@H](CC(C)C)NC(=O)C(C)(C)NC(=O)[C@H](C)NC(=O)[C@H](CCC(=O)O)NC(=O)[C@H](CCC(=O)O)NC(=O)[C@H](CCCCNC(=O)COCCOCCNC(=O)COCCOCCNC(=O)CC[C@H](NC(=O)CCCCCCCCCCCCCCCCCCC(=O)O)C(=O)O)NC(=O)[C@H](CC(C)C)NC(=O)[C@H](Cc1ccc(O)cc1)NC(=O)[C@H](CO)NC(=O)[C@@H](NC(=O)[C@H](CC(=O)O)NC(=O)[C@H](CO)NC(=O)[C@@H](NC(=O)[C@H](Cc1ccccc1)NC(=O)[C@@H](NC(=O)CNC(=O)[C@H](CC(C)C)NC(=O)C(C)(C)NC(=O)[C@@H](N)Cc1c[nH]cn1)[C@@H](C)O)[C@@H](C)O)C(C)C)C(=O)N[C@@H](CCC(=O)O)C(=O)N[C@@H](Cc1c[nH]cn1)C(=O)N[C@@H](CC(C)C)C(=O)N[C@H](C(N)=O)C(C)C [compound 170] (H-H[Aib]LGTFTSDVSYLK([AEEA-AEEA-γGlu-C20 diacid])EEA[Aib]LQRFLEHLV-NH2)
0.08,10901,,,,0.01,111764,1000,,,,CC(C)C[C@H](NC(=O)[C@H](Cc1ccccc1)NC(=O)[C@H](CCCNC(=N)N)NC(=O)[C@H](CCC(N)=O)NC(=O)[C@H](CCC(N)=O)NC(=O)[C@H](C)NC(=O)[C@H](C)NC(=O)C(C)(C)NC(=O)[C@H](CCC(=O)O)NC(=O)[C@H](CCCCNC(=O)COCCOCCNC(=O)COCCOCCNC(=O)CC[C@H](NC(=O)CCCCCCCCCCCCCCCCCCC(=O)O)C(=O)O)NC(=O)[C@H](CC(C)C)NC(=O)[C@H](Cc1ccc(O)cc1)NC(=O)[C@H](CO)NC(=O)[C@@H](NC(=O)[C@H](CC(=O)O)NC(=O)[C@H](CO)NC(=O)[C@@H](NC(=O)[C@H](Cc1ccccc1)NC(=O)[C@@H](NC(=O)CNC(=O)[C@H](CCC(=O)O)NC(=O)C(C)(C)NC(=O)[C@@H](N)Cc1c[nH]cn1)[C@@H](C)O)[C@@H](C)O)C(C)C)C(=O)N[C@@H](CCC(=O)O)C(=O)N[C@@H](Cc1c[nH]cn1)C(=O)N[C@@H](CC(C)C)C(=O)N[C@H](C(N)=O)C(C)C [compound 94] (H-H[Aib]EGTFTSDVSYLK([AEEA-AEEA-γGlu-C20 diacid])E[Aib]AAQQRFLEHLV-NH2)
